Patent US8431541B2, “Alpha-amylase inhibitors: the montbretins and uses thereof” (The University of British Columbia, priority 2007, dated 2013)

Target: T1, α-mannosidase (Jack Bean) (Canavalia ensiformis, UniProt C0HJB3)
T1 sequence (C0HJB3 1-981): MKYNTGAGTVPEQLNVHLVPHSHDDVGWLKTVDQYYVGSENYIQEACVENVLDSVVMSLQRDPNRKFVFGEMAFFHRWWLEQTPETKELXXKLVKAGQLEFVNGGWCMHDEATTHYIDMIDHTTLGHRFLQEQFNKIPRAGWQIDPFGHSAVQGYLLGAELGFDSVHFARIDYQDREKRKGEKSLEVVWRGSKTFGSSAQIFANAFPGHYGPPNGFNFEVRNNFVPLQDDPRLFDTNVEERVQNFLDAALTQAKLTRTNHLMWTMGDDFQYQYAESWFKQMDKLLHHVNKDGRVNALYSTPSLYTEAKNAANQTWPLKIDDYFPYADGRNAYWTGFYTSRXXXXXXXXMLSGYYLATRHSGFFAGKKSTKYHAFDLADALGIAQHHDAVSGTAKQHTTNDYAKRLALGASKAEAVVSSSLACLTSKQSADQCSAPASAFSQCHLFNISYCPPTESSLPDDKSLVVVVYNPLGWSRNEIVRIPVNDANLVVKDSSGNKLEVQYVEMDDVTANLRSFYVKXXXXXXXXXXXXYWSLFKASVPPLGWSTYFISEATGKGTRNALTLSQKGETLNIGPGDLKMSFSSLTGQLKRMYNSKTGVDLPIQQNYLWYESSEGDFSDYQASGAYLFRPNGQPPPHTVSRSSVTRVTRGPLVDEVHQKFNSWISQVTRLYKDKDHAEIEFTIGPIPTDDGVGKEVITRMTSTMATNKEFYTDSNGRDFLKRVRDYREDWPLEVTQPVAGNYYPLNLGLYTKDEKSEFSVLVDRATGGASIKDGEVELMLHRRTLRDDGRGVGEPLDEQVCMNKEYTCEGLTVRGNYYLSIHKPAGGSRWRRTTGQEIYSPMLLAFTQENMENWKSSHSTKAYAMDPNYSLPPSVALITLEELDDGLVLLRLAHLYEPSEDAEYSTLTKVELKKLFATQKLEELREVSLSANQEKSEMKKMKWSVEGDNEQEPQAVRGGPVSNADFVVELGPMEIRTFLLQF
Assay: Glycosidase specificity: α-mannosidase
Type: biochemical
Details: at 0.1 μM Montbretin A; read-out: RA (%), Residual Enzyme Activity

CC1O[C@@H](O[C@@H]2CO[C@@H](Oc3c(O)cc(-c4oc5cc(O)cc(O)c5c(=O)c4O[C@@H]4OC(C)[C@H](O)[C@H](O)C4O[C@@H]4OC(COC(=O)/C=C/c5ccc(O)c(O)c5)[C@@H](O)[C@@H](O)C4O[C@@H]4OC(CO)[C@@H](O)[C@@H](O)C4O)cc3O)C(O)[C@@H]2O)C(O)[C@@H](O)[C@H]1O (stereo partly shown) [Montbretin A, montbretin A]
remaining activity at 0.1 µM: 100%
